These results are taken from patent US20060106099A1, “Novel inhibitors of ubiquitin isopeptidases” (priority 2002, published 2006).

One test has as its system HCT 116 (p53 wt). Description: MTS cytotoxicity, HCT 116 (p53 wt). Type of test: cell-based. The settings on record: Homo sapiens, log of EC50 in μM, 48 h, read-out: Log EC50 +/− Standard Error of Log EC50, HCT 116 (p53 wt) (converted). From the text: (§1) Cytotoxicity in Human Colon Tumor (HCT) Cell Lines. To determine if punaglandins elicit cytotoxicity independently of the tumor-suppressor p53, as do other dienone prostaglandins, several cytotoxicity assays were employed. First, cell death effects of all isolated punaglandins were investigated in pairs of isogenic colon cancer cell lines, the HCT 116^+/+ competent cell line and HCT 116^−/− null cell lines. HCT 116^+/+ cells are homozygous for p53^+/+ and p21^+/+; where as, HCT 116^−/− cells lack both alleles for p53 (p53^−/−) or p21 (p21^−/−).
(§2) Each cell line was seeded simultaneously in 96-well plates and incubated for 24 h before treatment with individual punaglandins at various concentrations for 48 additional h. Cytotoxicity was determined using MTS and absorbances were recorded at 490 nm. Half maximal effective concentrations (EC50) and Log EC50s were calculated from a concentration-response curve generated using GraphPad Prism (Table 1).

In the next test the test system is HCT 116 (p53^−/−). Description: MTS cytotoxicity, HCT 116 (p53−/−). The test is classed as cell-based. The conditions noted are these: Homo sapiens, log of EC50 in μM, 48 h, read-out: Log EC50 +/− Standard Error of Log EC50, HCT 116 (p53−/−) (converted).
Excerpt: as §1, §2

A further test deals with HCT 116 (p21 wt). Description: MTS cytotoxicity, HCT 116 (p21 wt). Type of test: cell-based. The settings on record: Homo sapiens, log of EC50 in μM, 48 h, read-out: Log EC50 +/− Standard Error of Log EC50, HCT 116 (p21 wt) (converted).
Excerpt: as §1, §2

Another test concerns HCT 116 (p21^−/−). Description: MTS cytotoxicity, HCT 116 (p21−/−). Type of test: cell-based. The conditions noted are these: Homo sapiens, log of EC50 in μM, 48 h, read-out: Log EC50 +/− Standard Error of Log EC50, HCT 116 (p21−/−) (converted).
Excerpt: as §1, §2

Test [1] deals with ubiquitin isopeptidases. Description: Ubiquitin isopeptidase activity, Ub-PEST substrate, lysates of treated RKO and HCT 116 cells. The conditions noted are these: cells treated 6, 20 or 60 μM, 12 h. Type of test: cell-based, human. How it is done: A) Inhibition of isopeptidase proteolysis of Ub-PEST substrate. RKO and HCT 116 cells were treated with DMSO vehicle, 6, 20, or 60 μM of Δ12-PGJ2, DBA, NSC-302979, or curcumin, 60 μM PGB1, 60 μM NSC-156236, or 60 μM DPTP for 12 h, 37° C. Cell lysates from each treatment were incubated with Ub-PEST, as described in materials and methods. Samples were fractionated by SDS-PAGE and proteins detected with ubiquitin epitopes immunochemically (HCT 116 ^+/+ western blot shown as example of raw data). […] B) Inhibition of isopeptidase activity by test panel compounds. Isopeptidase activity was determined by measuring via densitometry, the amount of Ub generated by isopeptidase cleavage of Ub-PEST. Bar graph patterns are DMSO vehicle (black), Δ12-PGJ2 (hatched), DBA (horizontal lines), NSC-302979 (white), PGB1 (diagonally downward right lines), and NSC-156236 (diagonally downward left lines). The amount of Ub generated in the vehicle treated sample (panel A, lane 2) is arbitrarily designated 100%.
Cellular isopeptidase enzymatic activity was measured with two assays that used different substrates. In one assay ubiquitin-PEST (Ub-PEST) was used, a full-length ubiquitin molecule with an 18 amino acid c-terminal peptide extension (total mass=10.5 kDa). Ubiquitin isopeptidases specifically cleave the 18 amino acid peptide extension, releasing full-length ubiquitin (8.5 kDa).
Briefly, 6×10^5 cells were incubated with 0-60 μM of test compounds for 12 hrs. Cells were lysed in 50 μL of 25 mM HEPES, 5 mM EDTA, 0.1% CHAPS, 5 mM ATP, pH 7.5. The protein concentration of each sample was adjusted to 0.3 mg/mL and incubated with 50 μg/mL Ub-PEST for 45 minutes at 25° C. Under these conditions, Ub-PEST hydrolysis occurs at a linear rate. 20 μL samples were mixed with 20 μL 2× Laemmli buffer, boiled briefly, and fractionated by SDSPAGE. Isopeptidase activity was monitored by determining the amount of product (8.5 kDa ubiquitin) formation.

The test system of test [2] is ubiquitin isopeptidases. Description: Ubiquitin isopeptidase activity, z-LRGG-AMC substrate, lysates of treated RKO and HCT 116 cells. Type of test: cell-based, human. The settings on record: cells treated 6, 20 or 60 μM, 12 h. How it is done: RKO (upper) and HCT 116 ^+/+ cells (lower) were treated with DMSO vehicle, 6, 20, or 60 μM of Δ12-PGJ2, DBA, NSC-302979, or curcumin, 60 μM PGB1, 60 μM NSC-156236, or 60 μM DPTP for 12 h at 37° C. Cell lysates (0.5 mg/mL) from each treatment were incubated with the isopeptidase substrate, z-LRGG-AMC, for 3 h, 37° C. The amount of AMC cleaved by isopeptidase was determined fluorometrically, as described in Materials and Methods.
The second assay used a fluorescent tetrapeptide, z-LRGG-AMC, as a substrate that mimics the carboxy-terminus of ubiquitin. Isopeptidase activity hydrolyzes the bond between the c-terminal glycine and the fluorophore. This tetrapeptide also undergoes slow proteolysis by the catalytic subunit of the proteasome. To minimize this background rate of proteolysis cell lysates were incubated with 30 μM MG115 for 30 minutes at 4° C., prior to substrate incubation (>90% proteasome inhibition). Cells were teeated as above, lysed in 250 μL of lysis buffer per sample, and adjusted protein concentration to 0.5 mg/mL prior to incubation with MG115. Next, z-LRGG-AMC substrate was added and fluorescence was quantified of the AMC moiety cleaved by isopeptidase action.

For test [3], the system named is polyubiquitin conjugates in RKO-E6 cells. Description: Accumulation of polyubiquitin in RKO-E6 cells (immunoblot). Type of test: cell-based, human. The conditions noted are these: EC80 or 60 μM, 6-24 h. How it is done: (§3) A) Accumulation of polyubiquitin. RKO-E6 cells were treated with DMSO vehicle for 24 h, 37° C., or with the concentrations of test compounds that gave 80% cell death (as determined by cell viability assay at 48 h) for 6, 12, or 24 h, 37° C. […] Schematic depicting p53 degradation via the proteasome pathway in RKO cells versus RKO-E6 cells. The activity of the HPV E6 oncoprotein hastens p53 degradation in RKO-E6 cells. ii. RKO and RKO-E6 cells were treated with vehicle, etoposide (50 μM), MG115 (20 μM), Δ12-PGJ2 (60 μM), NSC-302979 (20 μM, DBA (20 μM), curcumin (60 μM), PGB1 (60 μM), NSC-156236, (60 XM)or DPTP 60 μM for 6 h, 37° C. Lysates were fractionated by SDS-PAGE and their p53 content determined immunochemically. iii. p53 levels were measured by densitometry and the ratio of p53 protein in RKO-E6 cells/RKO cells calculated.
(§4) The medium was removed and cells lysed in 50 mM Tris, pH 7.4, 100 mM NaCl, 2 mM EDTA with 0.1% SDS, 0.1% deoxycholate, 1× complete protease inhibitor mixture. Protein concentration was measured by the Bradford method. Equal portions of the total cell lysate were fractionated from each sample (12.5 μg of protein) by SDS-PAGE. Proteins were transferred to poly(vinylidene difluoride) blocked with 5% (w/v) nonfat dry milk in Trisbuffered saline [20 mM Tris-HCl, pH 7.5, 100 mM sodium chloride, 0.1% (v/v) Tween 20]. Proteins were detected immunochemically by using primary antibodies directed against p53 (1:4000) or ubiquitin (1:1000), followed by horseradish peroxidase-conjugated secondary antibodies (1:4000). Antigen-antibody complexes were detected with enhanced chemiluminescence reagents. Gels were scanned and quantified intensities using Kodak 1D Image Analysis Software.
(In general: In western blotting, separated proteins are transferred to a membrane and probed.)

For the next test, the system named is p53. Description: p53 accumulation, ratio RKO-E6 cells/RKO cells (immunoblot, densitometry). The test is classed as cell-based, human. The conditions noted are these: 6 h; etoposide 50 μM, MG115, NSC-302979, DBA 20 μM, others 60 μM. How it is done: as §3, §4
The subject of a further test is RKO cells. Description: MTT cell viability assay, RKO cells. The conditions noted are these: 48 h; for cell death in RKO compared with RKO-E6 cells: MTT, isogenic pair; for EC50: Homo sapiens, RKO, read-out: Cytotoxic Potency (EC50) RKO. For orientation: Tetrazolium assays rely on reduction of a dye to a coloured formazan, in cell work by metabolically active cells.

Another test has as its system RKO-E6 cells. Description: MTT cell viability assay, RKO-E6 cells. The settings on record: for EC50: Homo sapiens, RKOE6, 48 h, read-out: Cytotoxic Potency (EC50) RKO-E6.
Another test has as its system HCT 116 +/+ cells. Description: MTT cell viability assay, HCT 116 p53 +/+ cells. The conditions noted are these: for cell death in HCT 116 +/+ compared with HCT 116 −/− cells: 48 h, MTT, isogenic pair; for EC50: Homo sapiens, HCT-116, 48 h, read-out: Cytotoxic Potency (EC50) HCT +/+.
Another test deals with HCT 116 −/− cells. Description: MTT cell viability assay, HCT 116 p53 −/− cells. The settings on record: Homo sapiens, HCT-116, 48 h, read-out: Cytotoxic Potency (EC50) HCT −/−.
The test system of test [4] is ubiquitin isopeptidases. Description: In vivo isopeptidase activity after treatment of RKO cells, Ub-PEST. The test is classed as cell-based, human. The conditions noted are these: 6 h. How it is done: Isopeptidase Assay. It was hypothesized that the punaglandins would inhibit ubiquitin-isopeptidase activity of the proteasome pathway as does the prostaglandin, Δ^12-PGJ2 (1), but with greater potency because of the chlorinated C-10. To validate this theory, cellular isopeptidase enzymatic activity was measured in vitro after treatment with individual punaglandins, PNG 2 (6), PNG 3 (7), and Z-PNG 4 (9) and in vivo after individual treatment with PNG 4 (8) and PNG 6 (10). This activity was determined utilizing the simple isopeptidase substrate, ubiquitin-PEST (Ub-PEST), a full/length ubiquitin (Ub) molecule fused with an 18-amino acid C-terminal peptide extension that most isopeptidases use as a substrate. The polypeptide extension contains regions rich in Pro (P), Glu (E), Ser (S), and Thr (T) residues called PEST motifs that are responsible for rapid degradation of these and other unstable proteins. Ub isopeptidases specifically cleave this peptide extension, yielding free, full-length Ub. Both the fused Ub-PEST (10.5 kDa) and the cleaved, free Ub (8.5 kDa) can be observed via immunochemical detection.
In vivo Isopeptidase Activity. To investigate whether punaglandins can inhibit isopeptidase activity in vivo, isopeptidase activity was analyzed after punaglandin treatment of RKO cells. PNG 4 (8) and PNG 6 (10) were selected for in vivo investigation because they differ only in enone functionality, where (8) is a dienone and (10) an enone. RKO cells were incubated with 1 μM, 4 μM, or 7 μM of PNG 4 (8) and PNG 6 (10). […] As a positive control, cells were treated with a known isopeptidase inhibitor, shikoccin (SK). After 6 h drug treatment, cells were lysed and protein concentration adjusted to 0.3 mg/mL per sample. Each sample was subsequently incubated with 50 μg/mL of Ub-PEST. The reaction was terminated after 20 min and the respective amounts of Ub-PEST (10 kDa) and free Ub product (8.5 kDa) were determined by SDS-PAGE fractionation.

As to `CCCCC/C=C\C[C@@]1(O)C=C(Cl)C(=O)[C@@H]1[C@@H](OC(C)=O)[C@H](OC(C)=O)[C@H](CCCC(=O)OC)OC(C)=O` [PNG 2], the EC50 with HCT 116 (p53 wt) is 0.0398 µM; with HCT 116 (p53^−/−), 0.0398 µM; in the test with HCT 116 (p21 wt) it was 0.0468 µM; in the test on HCT 116 (p21^−/−), 0.0398 µM.
Turning to `O=C(C=Cc1ccccc1)C=Cc1ccccc1` [DBA, dibenzylideneacetone], the “inhibition of isopeptidase cleavage of Ub-PEST” value in the test with ubiquitin isopeptidases [1] was “inhibited isopeptidase activity in a concentration dependent manner”. Further, in the test with ubiquitin isopeptidases [2], the “inhibition of z-LRGG-AMC hydrolysis by ubiquitin isopeptidases” value was “inhibited ubiquitin isopeptidase activity”. In addition, the “cellular accumulation of polyubiquitin conjugates” value in test [3] was “protein species with polyubiquitin conjugation accumulated in cells”. The “ratio of p53 protein [RKO-E6 cells/RKO cells]” value in the test with p53 is “approached unity”. Also, the “cell death in RKO compared with RKO-E6 cells” value in the test on RKO cells is “caused cell death with equal potency and efficacy”. Also, the EC50 in the test on RKO cells turned out to be 7 ± 0.6 µM; in the test with RKO-E6 cells, 6.5 ± 1.1 µM; in the test with HCT 116 +/+ cells it was 3.2 ± 0.1 µM; in the test on HCT 116 −/− cells it was 3.8 ± 0.1 µM. The “EC80, concentration that gave 80% cell death” value in the test with RKO-E6 cells (cell viability assay at 48 h, RKO-E6 cells) is 12.0 µM. Besides, the “cell death in HCT 116 +/+ compared with HCT 116 −/− cells” value with HCT 116 +/+ cells is on record as “caused cell death with equal potency”.
In the case of `C[C@@H]1C[C@@H]([C@H](O)CC2CC(=O)NC(=O)C2)C(=O)[C@@H](C)C1` [cycloheximide], in the test on ubiquitin isopeptidases [4], the “effect on Ub-PEST degradation, control substances” value is reported as 1:1 ratio of Ub-PEST to free Ub.
In the case of `O=c1cc(-c2ccccc2)sc(-c2ccccc2)c1` [DPTP, 2,6-Diphenyl-4H-thiopyran-4-one], in the test with ubiquitin isopeptidases [1], the “inhibition of isopeptidase cleavage of Ub-PEST” value is listed as “did not inhibit isopeptidase activity”. Moreover, the “inhibition of z-LRGG-AMC hydrolysis by ubiquitin isopeptidases” value with ubiquitin isopeptidases [2] was “did not”. For the same compound, in test [3], the “cellular accumulation of polyubiquitin conjugates” value is “did not cause appreciable cellular accumulation of ubiquitin conjugates”. Also, the “ratio of p53 protein [RKO-E6 cells/RKO cells]” value with p53 is reported as “significantly less than unity”. In addition, in the test on RKO cells, the “cell death in RKO compared with RKO-E6 cells” value is “did not cause significant cell death”. For the same compound, the EC50 in the test on RKO cells, in the test with RKO-E6 cells, in the test with HCT 116 +/+ cells and in the test with HCT 116 −/− cells was over 60 µM in each case. Besides, the “cell death in HCT 116 +/+ compared with HCT 116 −/− cells” value in the test with HCT 116 +/+ cells is “did not cause significant cell death”.
